We go through three molecules from patent US8034572B2, “Receptor for GDNF family ligands” (priority 2006, dated 2011).

Test [1] has as its target T1, GDNF (Homo sapiens, UniProt P39905).
T1 construct: purchased PeproTech, Ltd. or R&D Systems, Inc
T1 sequence (P39905 78-211 limits assumed): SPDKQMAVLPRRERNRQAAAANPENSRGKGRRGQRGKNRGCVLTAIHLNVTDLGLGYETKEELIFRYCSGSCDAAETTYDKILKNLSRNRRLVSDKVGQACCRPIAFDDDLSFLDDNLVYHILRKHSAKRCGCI
As to the kind of experiment: Scintillation proximity assay: tritium labeled heparin binding to and displacement from GDNF. The settings on record: FIG. 11. The text has this:
The scintillation proximity assay (SPA) technology (Amersham) was used to assay the ability of the low molecular weight molecule (namely low molecular weight heparin from Sigma) to displace tritium labeled heparin from GDNF.
Small beads filled with scintillation liquid are covalently linked with anti-mouse antibodies that can capture mouse anti-FLAG-tag antibodies. In turn, GDNF that we produced by ourselves has a FLAG-tag on its N-terminus. Thus, GDNF is in close proximity to the scintillation beads. The tritium labeled high molecular weight heparin (a kind gift from Ulf Lindahl, Sweden) is administered in the surrounding solution. Labeled heparin binds GDNF, which is sitting on scintillation beads and induces light that is detected. […] This assay can be easily adopted to high-throughput format.
To test the ability of small molecules to displace heparin or heparan sulfates from GDNF they are simply mixed at different concentrations with the labeled heparin and the decrease of the signal is monitored. It does positively correlate with the concentration of the cold heparin. We did it in our study with low molecular weight heparin and got IC50 of approximately 10 nM, which correlates with other binding data (FIG. 11).
(In a scintillation proximity assay essentially only radioactivity close to the scintillant gives light.)

Test [2] has as its target T1, GDNF. The test can be described thus: SPR: competition of GDNF binding to heparin-BSA cuvette by heparin and desulfated heparins. The note with it: competing out GDNF binding to heparin-BSA cuvette. The protocol: (§1) Specifically desulfated heparins (Takano et al., 1998) were used to assess the involvement of different sulfate groups in the GDNF-heparin interaction by following direct binding to GDNF cuvette, or by competing out GDNF binding to the heparin-BSA cuvette. Dissociation constants were determined from direct binding using increasing GDNF concentrations and by fitting the data to R=(Rmax*C)/(Kd+C) for heparin. For desulfated heparins, the best fit was achieved using equation R=(Rmax1*C)/(Kd1+C)+(Rmax2*C)/(Kd2+C), where Kd1 and Kd2 are apparent dissociation constants derived for two heparin sites of different affinities with maximum equilibrium response Rmax1 and Rmax2, respectively.
Background: Surface plasmon resonance follows binding to a sensor surface in real time, without labels.

Test [3] addresses T1, GDNF. As to the kind of experiment: SPR: direct binding of heparin or desulfated heparins to GDNF cuvette. The settings on record: apparent Kd from equilibrium response, read-out: Kd1. The protocol:
as §1

Test [4] deals with T2, GDNF-syndecan-3 complex (UniProt P33671+P39905).
T2 construct: the rat glioma C6 cell line, which expresses syndecan-3; endogenous in cells; host or cells: rat glioma C6 cells (syndecan-3); GDNF purchased from PeproTech or R&D Systems and iodinated
As to the kind of experiment: Chemical cross-linking of ^125I-GDNF to C6 cells and immunoprecipitation with anti-syndecan-3. The settings on record: heparin 1 μg/ml; HB-GAM 150-fold molar excess; added with ^125I-GDNF. Type of test: cell-based, rat. On the procedure: Glioma C6 cells were plated on 6-well plates and grown to 70% confluency. Cells were incubated with 1 nM ^125I-GDNF for 2 hours in binding buffer (Dulbecco's modified Eagle's medium, 0.2% BSA and 15 mM Hepes, pH 7.2) on ice. Unbound ligand was removed by washing three times with ice-cold PBS. The chemical cross-linker ethyl-dimethyl-aminopropyl-carbodimide (EDAC) supplemented with N-hydroxysuccinimide (NHS) (Sigma) was incubated with cells for 20 min at room temperature in PBS. The reaction was quenched with TBS for 15 min and cells were lysed in lysis buffer (TBS, 1% Triton X-100, 1% NP-40, 2 mM EDTA, 1 mM PMSF and Complete protease inhibitor mixture from Roche Molecular Biochemicals). Cell lysates were immunoprecipitated with anti-syndecan-3 antibodies (Nolo et al., 1995) and resolved on 7.5% SDS-PAGE. Autoradiography was performed with BAS1500 (Fuji). For heparinase III or PI-PLC treatment cells were incubated with 10 mU/ml heparinase III or with 1 U/ml PI-PLC, respectively for one hour at 37° C., 5% CO2 before ^125I-GDNF addition.

For test [5] the following is noted: coinfusion into rat striatum; cited from earlier work.

T2 sequence (P33671 45-442, one chain of several): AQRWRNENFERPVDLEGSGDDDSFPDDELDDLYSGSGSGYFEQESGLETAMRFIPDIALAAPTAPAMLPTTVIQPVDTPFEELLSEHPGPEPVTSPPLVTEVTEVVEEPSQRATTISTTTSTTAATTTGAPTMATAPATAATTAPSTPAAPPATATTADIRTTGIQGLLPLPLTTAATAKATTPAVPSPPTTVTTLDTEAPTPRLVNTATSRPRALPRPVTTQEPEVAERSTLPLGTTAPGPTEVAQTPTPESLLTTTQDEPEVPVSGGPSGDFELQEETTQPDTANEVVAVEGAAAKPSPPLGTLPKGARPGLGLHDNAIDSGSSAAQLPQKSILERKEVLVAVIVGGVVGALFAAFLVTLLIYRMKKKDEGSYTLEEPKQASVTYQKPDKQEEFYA

A word on the IC50: it is the midpoint of a concentration-inhibition curve. A high value points to weaker potency. low molecular weight heparin yielded an IC50 in test [1] of approximately 10 nM.

In the case of heparin, the “IC50” value in test [2] came to 0.06 ng/mL. In test [3], the Kd worked out at 9.5 nM. For the same molecule, the “effect on ^125I-GDNF binding to syndecan-3 on C6 cells” value in test [4] is listed as “abolished ^125I-GDNF binding to syndecan-3 almost completely”. Also, the “biodistribution of coinfused GDNF, NRTN or ARTN” value in test [5] was “markedly increased their biodistribution”.

B1: HB-GAM: ECM molecule, another syndecan-3-specific ligand (protein)
chain: GKKEKPEKKVKKSDCGEWQWSVCVPTSGDCGLGTREGTRTGAECKQTMKTQRCKIPCNWKKQFGAECKYQFQAWGECDLNTALKTRTGSLKRALHNADCQKTVTISKPCGKLTKPKPQAESKKKKKEGKKQEKMLD
As for B1, in test [4], the “effect on ^125I-GDNF binding to syndecan-3 on C6 cells” value is listed as “displaced”.
